Source: US8476314B2, “Substance with sedative effect” (Technology Commercialization Corp, priority 2002, dated 2013)
Entries after “also recorded” stand apart in the source; their conditions may differ.

Legend:
[1] = test system: tetrodotoxin-resistant (TTXr) Nav1.8 slow sodium channels; assay: patch-clamp experiments on dorsal root ganglion neurons; format: cell-based; conditions: for modulation of the activity of TTXr Nav1.8 slow sodium channels: patch-clamp, extracellular solution Na+ 65 mM, Ca2+ 2 mM, Mg2+ 2 mM
solubility = format: physicochemical
[2] = test system: opioid (or opioid-like) receptor; assay: patch-clamp experiments, receptor binding (naltrexone block, affinity order); format: cell-based; conditions: patch-clamp results, decreasing affinity
Excerpt: The physiological effect on the Nav1.8 channel of the following closely related gamma-pyrone derivatives (see FIG. 1) was investigated: I) comenic acid (5-hydroxy-gamma-pyrone-2-carboxylic acid), II) meconic acid (3-hydroxy-gamma-pyrone-2,6-dicarboxylic acid, III) 5-methoxy-gamma-pyrone-2-carboxylic acid, IV) kojic acid (2-hydroxymethyl-5-hydroxy-gamma-pyrone) and V) chelidonic acid (gamma-pyrone-2,6-dicarboxylic acid). […] Clinical Pathophysiology (Russian), in press].
Thus, according to the model of the mechanism of ligand receptor binding of said opioid (or opioid like) receptor, the prerequisites for gamma-pyrones receptor activity are 1) a carboxy group in position 2 of the pyranone ring, 2) a carbonyl group in position 4 of the pyranone ring, and 3) a substituent in position 5 which can participate in Ca^2+ chelation. […] Clinical Pathophysiology (Russian), in press]. Based on these observations, several conclusions concerning the potential effect of substituents in positions 3, 5 and 6 on the stability of ligand-receptor complex can be drawn. The presence of a carboxy group in position 6 (meconic acid, II) increases ligand affinity to the receptor as compared with comenic acid (I). It may be proposed that the carboxy group in position 6 is involved in additional interaction with one or several polar functional groups of the receptor by formation of intermolecular hydrogen or salt bonds. Based on this, introduction of a hydrophobic substituent in position 6 should reduce the affinity of gamma-pyrone derivatives to said opioid (or opioid-like) receptor. […] An increase in the size of the alkoxy group in position 5 will also lead to a further decrease or even total loss of physiological activity of the gamma-pyrone molecule. Bulky substituents in positions 3, 5 and 6 will decrease the affinity of gamma-pyrones to said receptor, since they will less readily be accommodated in the binding pocket.

animals [3] = assay: treatment of narcotic dependency / withdrawal syndrome in animals; format: in vivo; conditions: pharmacologically effective dose
Experimental: (§1) One of the preferred compounds of the invention is comenic acid, also known as 5-hydroxy-4-oxo-4H-pyran-2-carbon acid, as well as 5-hydroxy-gamma-pyrone-2-carboxylic acid. […] The effect is long lasting, up to 24 hours after administration. […] The acid can be administered in a number of pharmaceutically acceptable ways by mixing it with known and biologically acceptable carriers. Administration methods include all parenteral modes, including injection (intravenously, subcutaneously, intramuscularly or intraperitoneal), transdermally, transmucosally, etc. […] This duration compares quite favorably to a typical drug abuse treatment cycle of 3 to 6 months using substitution methods such as methadone.
It is intended that the selected gamma-pyrones as described in the proceeding section be administered as a substitute for the abused drug. Typically, this will involve administration of a therapeutically effective amount of a composition containing the compounds of the invention at least once every twenty-four hours. […] The preferred dosage range is from about 0.05 to about 0.5 mg per kilogram of body weight per day. Such daily dosage can be achieved in a single application, multiple applications or using a continuous release application.

animals [4] = assay: continued daily administration to animals (sedative effect, dependency); format: in vivo
Experimental: as §1
The effect from each administration lasts up to 24 hours.

male rats of Wistar line = assay: "open field" test, motor activity of rats (sedative effect); format: in vivo, rat; conditions: for Motor activity after the preparation's introduction (n): enteral, squares crossed within 5 minutes; for Lowering motor activity relative to the control (%): vs saline; for Lowering motor activity relative to the Valerian extract (%): vs same dose of Valerian extract
Experimental: The sedative effect was measured by the change in motor activity of male rats of Wistar line with the mass of 0.20-0.23 kg in “the open field” test [Guiding and Method Materials in Experimental and Clinical Study of New Drugs. Part 2. M., 1980, pp. 126-133].
Male rats were subjected to the enteral introduction of 0.5 ml of saline solution. Then, the animals were divided into two groups. The rats in the first group were tested in “the open field” 60 minutes after the solution's introduction. The rats in the second group were tested 90 minutes after the introduction. The test consisted of the rat being placed in the center of “the open field”, and then the number of squares of “the open field” that the rat crosses within 5 minutes is counted (an estimation of motor activity).
Valerian extract was steamed until it became dry. Then, the dry remains were dissolved in saline in the required dosage (see table 1 and rated in mg/kg of a rat's body weight). The solution obtained was introduced into rats in the same way as for control. The testing of rats in “the open field” was also carried out as described for control.
Comenic acid was dissolved in saline in the desired dosages (see table 1 below). The solution's pH was adjusted to equal 6.5-6.8 using concentrated NaOH solution. Comenic acid was introduced into the rats in the same way as in control. The testing of rats in “the open field” was carried out as described for control group as well.

Ehrlich carcinoma = assay: growth of transplanted Ehrlich carcinoma in rats; format: in vivo; conditions: 50 mg/kg i.p., once per day, 5 times per week, 10 injections; tumor volumes day 13-44 and mortality vs control; Anoceptin 1% solution
Experimental: Comenic acid (in medicinal form, referred to as “Anoceptin™”) was also tested on rats with transplanted tumors (Ehrlich carcinoma) to determine if it stimulated tumor growth (Effect of medicine Anoceptin on the growth of transplantable tumor, State Oncology Institute, 2006, Saint-Petersburg, Russia). Ehrlich carcinoma was transplanted subcutaneously into 20 rats. Forty-eight hours after transplantation, the rats were randomly assigned into groups (10 rats in experimental group, and 10 in control group) and the injections were started. Both groups were injected i.p. (intraperitoneal) once per day, 5 times per week and given a total of 10 injections each. The experimental group was administered 50 mg/kg of comenic acid in each injection, while each in the control group was injected with 0.125 ml of physiological solution. Comenic acid was utilized in its medicinal form (“Anoceptin™”), a 1% solution with ions of proper moiety. For both groups, the size of the tumor was measured on day 13, 16, 20, 23, 27, 30, 37 and 44 of the experiment, and the volumes were calculated. […] The data was determined to be statistically significant, with p<0.05.

Pliss limphosarcoma = assay: growth of transplanted Pliss limphosarcoma in rats; format: in vivo; conditions: 50 mg/kg i.p., once per day, 5 times per week, 10 injections; tumor volumes day 6, 9, 13, 16 and mortality vs control; Anoceptin 1% solution
Experimental: Comenic acid (in medicinal form, referred to as “Anoceptin™”) was also tested on rats with transplanted tumors (Pliss limphosarcoma) to determine if it stimulated tumor growth (Effect of medicine Anoceptin on the growth of transplantable tumor in rats, State Oncology Institute, 2006, Saint-Petersburg, Russia). Pliss limphosarcoma was transplanted subcutaneously into 20 rats. Forty-eight hours after transplantation, the rats were randomly assigned into groups (10 rats in experimental group, and 10 in control group) and the injections were started. Both groups were injected i.p. (intraperitoneal) once per day, 5 times per week and given a total of 10 injections each. The experimental group was administered 50 mg/kg of comenic acid in each injection, while the control group was injected with 1.5 ml of physiological solution. Comenic acid was utilized in its medicinal form (“Anoceptin™”), a 1% solution with ions of proper moiety. For both groups, the size of the tumor was measured on day 6, 9, 13 and 16 of the experiment, and the volumes were calculated. […] The data was determined to be statistically significant, with p<0.05.

[5] = experiments repeated with the same rats

O=c1cc(CO)occ1O [IV, 2-hydroxymethyl-5-hydroxy-gamma-pyrone, reference compound]
modulation of the activity of TTXr Nav1.8 slow sodium channels [1]: did not exhibit such effect; also recorded: did not influence the functioning

O=C(O)c1cc(=O)cc(C(=O)O)o1 [V, gamma-pyrone-2,6-dicarboxylic acid, reference compound]
modulation of the activity of TTXr Nav1.8 slow sodium channels [1]: did not exhibit such effect; also recorded: did not influence the functioning

COc1coc(C(=O)O)cc1=O [III, 5-methoxy-gamma-pyrone-2-carboxylic acid]
solubility in non-polar organic solvents (solubility): practically insoluble
solubility in water and alcohol (solubility): moderately water- and alcohol-soluble
effect on the Nav1.8 slow sodium channel compared with comenic acid (I) ([1]; patch clamp, dorsal root ganglion neurons): decrease in activity
modulation of the activity of TTXr Nav1.8 slow sodium channels [1]: modulated the activity; also recorded: shown to modulate the functioning
order of affinity of the test molecule to the receptor [2]: II>I>III

O=C(O)c1cc(=O)c(O)c(C(=O)O)o1 [II, 3-hydroxy-gamma-pyrone-2,6-dicarboxylic acid]
modulation of the activity of TTXr Nav1.8 slow sodium channels [1]: modulated the activity
order of affinity of the test molecule to the receptor [2]: II>I>III

O=C(O)c1cc(=O)c(O)co1 [Comenic acid, 5-hydroxy-gamma-pyrone-2-carboxylic acid]
treatment of narcotic dependency in animals (animals [3]): effective treatment for the cure of narcotic dependency
drug dependency after continued daily use (animals [4]; 50 days of continued daily use): without causing drug dependency
duration of the effect after administration (animals [4]; each administration): up to 24 hours
Motor activity after the preparation's introduction (n) (male rats of Wistar line; 1 mg/kg of body weight, 60 min): 43.9 ± 6.8 n
Motor activity after the preparation's introduction (n) (male rats of Wistar line; 1 mg/kg of body weight, 90 min): 51.2 ± 8.3 n
Lowering motor activity relative to the control (%) (male rats of Wistar line; 1 mg/kg, 60 min): 13%
Lowering motor activity relative to the Valerian extract (%) (male rats of Wistar line; 1 mg/kg, 60 min): 19%
Lowering motor activity relative to the control (%) (male rats of Wistar line; 1 mg/kg, 90 min): −8%
Lowering motor activity relative to the Valerian extract (%) (male rats of Wistar line; 1 mg/kg, 90 min): −21%
Motor activity after the preparation's introduction (n) (male rats of Wistar line; 10 mg/kg of body weight, 60 min): 37.6 ± 5.9 n
Motor activity after the preparation's introduction (n) (male rats of Wistar line; 10 mg/kg of body weight, 90 min): 41.6 ± 6.8 n
Lowering motor activity relative to the control (%) (male rats of Wistar line; 10 mg/kg, 60 min): 25%
Lowering motor activity relative to the Valerian extract (%) (male rats of Wistar line; 10 mg/kg, 60 min): 22%
Lowering motor activity relative to the control (%) (male rats of Wistar line; 10 mg/kg, 90 min): 12.5%
Lowering motor activity relative to the Valerian extract (%) (male rats of Wistar line; 10 mg/kg, 90 min): −9%
Motor activity after the preparation's introduction (n) (male rats of Wistar line; 50 mg/kg of body weight, 60 min): 18.7 ± 3.3 n
Motor activity after the preparation's introduction (n) (male rats of Wistar line; 50 mg/kg of body weight, 90 min): 15.2 ± 3.1 n
Lowering motor activity relative to the control (%) (male rats of Wistar line; 50 mg/kg, 60 min): 63%
Lowering motor activity relative to the Valerian extract (%) (male rats of Wistar line; 50 mg/kg, 60 min): 52%
Lowering motor activity relative to the control (%) (male rats of Wistar line; 50 mg/kg, 90 min): 68%
Lowering motor activity relative to the Valerian extract (%) (male rats of Wistar line; 50 mg/kg, 90 min): 52%
Motor activity after the preparation's introduction (n) (male rats of Wistar line; 100 mg/kg of body weight, 60 min): 13.4 ± 4.8 n
Motor activity after the preparation's introduction (n) (male rats of Wistar line; 100 mg/kg of body weight, 90 min): 10.3 ± 2.8 n
Lowering motor activity relative to the control (%) (male rats of Wistar line; 100 mg/kg, 60 min): 73%
Lowering motor activity relative to the Valerian extract (%) (male rats of Wistar line; 100 mg/kg, 60 min): 67%
Lowering motor activity relative to the control (%) (male rats of Wistar line; 100 mg/kg, 90 min): 78%
Lowering motor activity relative to the Valerian extract (%) (male rats of Wistar line; 100 mg/kg, 90 min): 53%
development of tolerance (male rats of Wistar line; [5]): no development of tolerance
drug dependency (male rats of Wistar line; [5]): no indication of drug dependency
other side effects of the administration (male rats of Wistar line; [5]): no other side effects
sedative effect compared with that of valerian extract (male rats of Wistar line; rats, open field, 50 and 100 mg/kg): twice
solubility in non-polar organic solvents (solubility): practically insoluble
solubility in water and alcohol (solubility): moderately water- and alcohol-soluble
modulation of the activity of TTXr Nav1.8 slow sodium channels ([1]; listed as I): modulated the activity; also recorded: shown to modulate the functioning
effect on the growth of transplantable tumors of Ehrlich carcinoma (Ehrlich carcinoma): no effect (no stimulation and no inhibition)
order of affinity of the test molecule to the receptor [2]: II>I>III
effect on the growth of transplantable tumors of Pliss limphosarcoma (Pliss limphosarcoma): no effect (no stimulation and no inhibition)
